# Laboratory results reported in the supplement of paper PMC10307832.
# Legend:
# Assay in all cases: relative viability (nuclei count vs DMSO), 5 days (fraction); higher = more cells survive
# Bortezomib + Trametinib = compound: CC(C)C[C@H](NC(=O)[C@H](Cc1ccccc1)NC(=O)c1cnccn1)B(O)O [Bortezomib] + CC(=O)Nc1cccc(-n2c(=O)n(C3CC3)c(=O)c3c(Nc4ccc(I)cc4F)n(C)c(=O)c(C)c32)c1 [Trametinib] (partner 0.02 µM)
# Outline: (§1)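 Relative viability equals treated-well nuclei counts divided by vehicle-well nuclei counts. Counts came from 4× images of lung cancer cell lines grown in 1536-well plates for 5 days after pin-tool dosing on the day after seeding. Dosing used one drug alone or a fixed anchor-drug dose plus five library-drug doses (not always all listed) in √10 steps, and values are medians of duplicate plates.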
# Bortezomib + Phenformin = compound: CC(C)C[C@H](NC(=O)[C@H](Cc1ccccc1)NC(=O)c1cnccn1)B(O)O [Bortezomib] + N=C(N)NC(=N)NCCc1ccccc1 [Phenformin] (partner 250 µM)
# Outline: as §1
# [1] = compound: CC1=CC(=NN1)NC2=CC(=NC(=N2)/C=C/C3=CC=CC=C3)N4CCN(CC4)C + Cc1cc(Nc2cc(N3CCN(C)CC3)nc(Sc3ccc(NC(=O)C4CC4)cc3)n2)n[nH]1 [Tozasertib] (partner 0.1 µM)
# Outline: as §1
# [2] = compound: CC1=CC(=NN1)NC2=CC(=NC(=N2)/C=C/C3=CC=CC=C3)N4CCN(CC4)C + N=C(N)NC(=N)NCCc1ccccc1 [Phenformin] (partner 250 µM)
# Outline: as §1
Cell Line,relative viability (Bortezomib + Trametinib; first compound 0.0002 µM),relative viability (Bortezomib + Trametinib; first compound 0.000632 µM),relative viability (Bortezomib + Trametinib; first compound 0.002 µM),relative viability (Bortezomib + Trametinib; first compound 0.006325 µM),relative viability (Bortezomib + Trametinib; first compound 0.02 µM),relative viability (Bortezomib + Phenformin; first compound 0.0002 µM),relative viability (Bortezomib + Phenformin; first compound 0.000632 µM),relative viability (Bortezomib + Phenformin; first compound 0.002 µM),relative viability (Bortezomib + Phenformin; first compound 0.006325 µM),relative viability (Bortezomib + Phenformin; first compound 0.02 µM),relative viability ([1]; first compound 0.08 µM),relative viability ([1]; first compound 0.253 µM),relative viability ([1]; first compound 0.8 µM),relative viability ([1]; first compound 2.53 µM),relative viability ([1]; first compound 8 µM),relative viability ([2]; first compound 0.08 µM),relative viability ([2]; first compound 0.253 µM),relative viability ([2]; first compound 0.8 µM),relative viability ([2]; first compound 2.53 µM),relative viability ([2]; first compound 8 µM)
HCC-366,0.333,0.371,0.433,0.181,0.0229,0.621,0.542,0.629,0.578,0.0354,0.0833,0.0907,0.0487,0.032,0.0245,0.63,0.7,0.62,0.189,0.0317
HCC-827,0.515,0.555,0.417,0.218,0.141,0.428,0.379,0.442,0.192,0.101,0.404,0.375,0.422,0.355,0.236,0.39,0.402,0.435,0.401,0.216
HOP-62,0.37,0.401,0.378,0.173,0.0647,0.661,0.625,0.54,0.151,0.0609,0.354,0.366,0.377,0.261,0.18,0.713,0.758,0.688,0.459,0.26
LC-2-ad,0.903,0.89,0.995,0.597,0.201,0.686,0.507,0.557,0.19,0.146,0.45,0.409,0.358,0.224,0.204,0.554,0.571,0.501,0.251,0.172
LCLC-97TM1,0.173,0.205,0.162,0.0973,0.063,0.426,0.403,0.433,0.257,0.159,0.235,0.132,0.23,0.145,0.126,0.448,0.468,0.41,0.236,0.154
LCLC-103H,0.661,0.687,0.589,0.336,0.256,0.361,0.32,0.299,0.178,0.135,0.451,0.484,0.389,0.232,0.191,0.344,0.34,0.333,0.326,0.232
LK-2,0.68,0.597,0.332,0.156,0.196,0.416,0.282,0.514,0.131,0.149,0.187,0.153,0.165,0.171,0.171,0.313,0.327,0.309,0.111,0.117
LOU-NH91,0.772,0.793,0.402,0.344,0.359,0.774,0.645,0.661,0.282,0.261,0.713,0.719,0.707,0.482,0.308,0.7,0.768,0.78,0.509,0.365
